From ChEMBL document CHEMBL3507680, “University of Dundee, Gates Library screen for HepG2 cell viability”

Experiment: Human HepG2 cell viability assay in 384 well format
Type: toxicity, cell-based
Set-up: dose 125 nL, time 70.5 hour; cytotoxicity at 70.5 h: concentration not given beside the values
Conditions: HepG2 cells, read-out: Inhibition

Cc1cc(CN2CCCC2)cc(Oc2ccc(C(F)(F)F)cn2)c1
cytotoxicity at 70.5 h: -0.531%

NC(=O)CCC(=O)N1CCc2[nH]nc(-c3ccc4c(c3)OCO4)c2C1
cytotoxicity at 70.5 h: -5.52%

O=C(Nc1ccccc1OCCc1ccccn1)N1CCOCC1
cytotoxicity at 70.5 h: -13.5%

COc1ccc(F)cc1C(=O)N1CC(c2ccncc2)C1
cytotoxicity at 70.5 h: -10%

CCCc1nc(C)cc(N2CCC3(CCC(=O)N(CCCO)C3)CC2)n1
cytotoxicity at 70.5 h: -7.61%

COc1ccc2c(c1)C(C(=O)NCCN1CCOC1=O)CC(=O)N2 (stereo unspecified)
cytotoxicity at 70.5 h: -4.48%

COC(=O)[C@H]1C[C@@H](O)CCN1S(=O)(=O)c1c(C)cc(OC)c(C)c1C
cytotoxicity at 70.5 h: 27%

CN1CC[C@H]2CN(C(=O)c3csc(Cc4ccccc4)n3)C[C@H]21
cytotoxicity at 70.5 h: -5.61%

CCNC(=O)[C@@H]1C[C@@H](NC(=O)c2cc(C)on2)CN1Cc1ccccn1
cytotoxicity at 70.5 h: 24.8%

Cc1ccccc1SC1CCN(C(=O)CCCS(N)(=O)=O)CC1
cytotoxicity at 70.5 h: -5.95%

Cc1nc(C(=O)N[C@H]2COC[C@@H]2N2CCCCC2)cs1
cytotoxicity at 70.5 h: 17.8%

CCN1CCN(c2ncnc3c2CCN(C(=O)C2CC2)C3)CC1
cytotoxicity at 70.5 h: 26.2%

CC(NC(=O)COc1ccc(Cl)cc1Cl)c1nncn1C(C)C (stereo unspecified)
cytotoxicity at 70.5 h: -3.07%

N#Cc1c(N)nc2c(c1-c1c[nH]nc1C1CCCCC1)CC(N)CC2 (stereo unspecified)
cytotoxicity at 70.5 h: 22.4%

Cc1ccncc1C(=O)N1CC[C@@]2(O)CCN(C3CCCCC3)C[C@H]2C1
cytotoxicity at 70.5 h: -3.63%

Cc1ccccc1C(C(=O)N(C)CCc1cnn(C)c1)N(C)C (stereo unspecified)
cytotoxicity at 70.5 h: -0.295%

CCN1CCCC1CN(Cc1ccon1)CC1CCN(CCOC)CC1 (stereo unspecified)
cytotoxicity at 70.5 h: -9.79%

c1cc(CN2CCC(c3nnc4n3CCCCC4)CC2)c2nonc2c1
cytotoxicity at 70.5 h: 12.2%

Cc1cc(CNC(=O)C2CC(=O)N(CCN(C)C)C2)cc(C)n1 (stereo unspecified)
cytotoxicity at 70.5 h: 27.5%

COc1c(F)ccc(C(=O)N2CC[C@H](CO)[C@@H](O)C2)c1F
cytotoxicity at 70.5 h: -3.48%

CC(C)OC(C)c1nnc(SCC(=O)O)n1-c1ccc(F)cc1F (stereo unspecified)
cytotoxicity at 70.5 h: -6.19%

O=C1CCC2(CCCN(C(=O)c3ccoc3)C2)CN1CCc1c[nH]cn1 (stereo unspecified)
cytotoxicity at 70.5 h: -4.81%

CN(C)C[C@H]1C[C@H](CO)CN(C(=O)c2cc(S(N)(=O)=O)ccc2F)C1
cytotoxicity at 70.5 h: -3.55%

Cc1nc2c(c(=O)n1C)CN(C(=O)C1CCN(C(=O)C3CCC3)CC1)C2
cytotoxicity at 70.5 h: -1.69%

Cc1ncsc1CCC(=O)N1CCn2cccc2C1c1cccnc1 (stereo unspecified)
cytotoxicity at 70.5 h: -3.49%

O=C(NCc1nnc2n1CCCC2)c1cn(-c2ccccc2)nn1
cytotoxicity at 70.5 h: -4.64%

CCc1cc(N[C@@H]2C[C@H]3CC[C@@H]2C3)n2nccc2n1
cytotoxicity at 70.5 h: -6.76%

CCc1c(C)sc2ncnc(N3CC[C@@H](N4CCOCC4)[C@H](O)C3)c12
cytotoxicity at 70.5 h: -4.12%

COCCC1CCCCN1Cc1nc(C2CC2)no1 (stereo unspecified)
cytotoxicity at 70.5 h: -9.77%

O=C(CCCOCc1ccccc1)N1CCCC(c2ncc[nH]2)C1 (stereo unspecified)
cytotoxicity at 70.5 h: -22.8%

CCCSCC(=O)N1CCN(c2ccc(C)cc2)CC1C (stereo unspecified)
cytotoxicity at 70.5 h: -14.9%

COC[C@]1(O)CCN(Cc2cnc(N3CCOCC3)nc2)CC1(C)C
cytotoxicity at 70.5 h: -14.6%

Fc1ccccc1Cc1noc(CN2CCC(N3CCSCC3)CC2)n1
cytotoxicity at 70.5 h: -3.88%

Fc1ccc(N2CCN(CCCc3cn[nH]c3)CC2)cc1
cytotoxicity at 70.5 h: 12%

COc1ccnc(CN2CC(=O)N(c3ccc(C)cc3)CC2C)c1OC (stereo unspecified)
cytotoxicity at 70.5 h: 16.8%

Cc1ccc2cc(C3(O)CCN(C(=O)[C@@H]4CCCCN4)CC3)ccc2n1
cytotoxicity at 70.5 h: -2.74%

CCc1[nH]c2ccc(CNC(=O)c3cnc(N)nc3C)cc2c1C
cytotoxicity at 70.5 h: -3.2%

CN(C)C(C(=O)N1CCCN(C(=O)C2CCC2)CC1)c1ccccc1F (stereo unspecified)
cytotoxicity at 70.5 h: -9.38%

CCCOCC1CCN(C(=O)Cn2cccc(C(F)(F)F)c2=O)C1 (stereo unspecified)
cytotoxicity at 70.5 h: 3.49%

CC(C)(C)CC(=O)N1CCC(n2cc(C3(O)CCCC3)nn2)CC1
cytotoxicity at 70.5 h: -7.65%

CCOCc1nc(-c2cccc(OC)c2OC)n(C2CCN(C)CC2)n1
cytotoxicity at 70.5 h: -1.78%

CSc1ccccc1-n1ccnc1-c1cn(C2CCNCC2)nn1
cytotoxicity at 70.5 h: 2.69%

COCCCC1CCCN(Cc2c(C)ccc3ncccc23)C1 (stereo unspecified)
cytotoxicity at 70.5 h: 6.57%

CN1CCCC1CCn1ccnc1-c1ccc2ccccc2n1 (stereo unspecified)
cytotoxicity at 70.5 h: 1.35%

Cc1nc(C2CCNCC2)cc(N(C)CCc2cn[nH]c2)n1
cytotoxicity at 70.5 h: -3.08%

CC(C1CCN(Cc2c(Cl)ccc(O)c2Cl)CC1)N1CCN(C)CC1 (stereo unspecified)
cytotoxicity at 70.5 h: -4.03%

CNc1nc(C(=O)N2CCCC(CO)(CCCOC)C2)cs1 (stereo unspecified)
cytotoxicity at 70.5 h: -4.71%

Cc1nc2c(c(N3CCC(CN4CCCC4=O)CC3)n1)CCNCC2
cytotoxicity at 70.5 h: -5.86%

CN(Cc1ccccc1)c1ncccc1CNC1CCCC1
cytotoxicity at 70.5 h: -1.34%

CCC1(O)CCCN(c2nc(-c3ccccn3)nc3c2c(C)nn3C)C1 (stereo unspecified)
cytotoxicity at 70.5 h: -2.92%

CC(C)c1cc(N2CCC3(CC2)CN(C)CCN3C)ncn1
cytotoxicity at 70.5 h: -4.93%

Cc1cc(C)n(CC2(CNC(=O)C(c3ccccc3F)N(C)C)CC2)n1 (stereo unspecified)
cytotoxicity at 70.5 h: -5.49%

CC(=O)c1cccc(C(=O)N2C[C@@H](CN3CCCCCC3)[C@@H](CO)C2)c1
cytotoxicity at 70.5 h: -5.31%

Cc1ccc2[nH]c(=O)c(CN(C)Cc3cc(C4CC4)[nH]n3)cc2c1
cytotoxicity at 70.5 h: 11.1%

CC(C)c1noc(C2CC(=O)N(CCN(C)C)C2)n1 (stereo unspecified)
cytotoxicity at 70.5 h: -8.25%

c1ccc(CCN2CCN(C3CCOC4(CCOCC4)C3)CC2)cc1 (stereo unspecified)
cytotoxicity at 70.5 h: -5.08%
